Patent US11541049B2, “Tetrahydroisoquinoline derivatives, preparation process and use thereof” (SICHUAN KELUN-BIOTECH BIOPHARMACEUTICAL CO., LTD., priority 2018, dated 2023)
One block for each molecule: values may come before it.

Assays:
[1] = Pharmacokinetics study in male SD rats, intravenous injection; assay type: in vivo; conditions: male, SD, rat, plasma, rats, 5 mg/kg
Procedure: (§1) Pharmacokinetics characteristics were examined by administering compound of the present disclosure and the reference compound (BMS-962212) to male SD rats through intravenous injection (IV). Blood was collected at various time points after administration. The blood was anticoagulated with EDTA-K2. Plasma samples were obtained by centrifugation within 30 min after blood collection, and retained at −80° C. The plasma samples were processed to precipitate the proteins and then analyzed by LC-MS/MS.
(§2) The pharmacokinetic parameters were calculated using WinNonlin 6.3 software by employing a non-compartmental model.

[2] = Repeated dose toxicity study in SD rats, intravenous infusion, daily for 14 days; assay type: in vivo; conditions: rat, in vivo, daily for 14 days, SD rats, read-out: No-observed-adverse-effect level (NOAEL)
Procedure: (§3) The administration was repeated daily for 14 days, while clinical observation, body weight and food intake were recorded. […] Observation by gross anatomy and examination of histopathology were also conducted.

[3] = tested on: SD rats; experiment: as above; assay type: in vivo; conditions: 60 mg/kg
Procedure: as §3

[4] = Pharmacokinetics study in male rabbits, intravenous injection; assay type: in vivo; conditions: male, rabbit, plasma, 1 mg/kg
Procedure: as §1, with “properties” for “characteristics”, “rabbits” for “SD rats”, “centrifugation,” for “centrifugation within 30 min after blood collection,”
as §2

[5] = Pharmacokinetics study in Beagle dogs, intravenous injection; assay type: in vivo, Beagle dog; conditions: dog, plasma, 0.5 mg/kg
Procedure: as §1, with “properties” for “characteristics”, “Beagle dog” for “male SD rats”, “centrifugation,” for “centrifugation within 30 min after blood collection,”
as §2

[6] = Single dose toxicity study in SD rats, intravenous infusion; conditions: SD, rat, in vivo, iv
Procedure: (§4) The clinical observation was carried out for 7 days after a single dose, and the body weight of the animals were measured. On the 8th day, blood samples were taken after anesthesia for detection of hematology, blood biochemistry, coagulation and other indicators. Observation was also conducted by gross anatomy.

[7] = tested on: SD rats; experiment: as above; conditions: intravenous infusion (2 ml/min)
Procedure: as §4

[8] = molecular target: human coagulation factor XIa (Homo sapiens (Human), UniProt P03951); experiment: Inhibition of coagulation factor XIa (fluorogenic substrate, enzyme kinetic mode); assay type: biochemical
Procedure: The following procedures can be used to determine the in vitro inhibition of human coagulation factor XIa by the compound of the present disclosure, as indicated by IC50.
Enzyme: human coagulation factor XIa; manufacturer: Haemtech;
Substrate: Boc-Ile-Glu-Gly-Arg-AMC Acetate salt; manufacturer: Bachem;
Reaction buffer: 50 mM HEPES, 145 mM NaCl, 5 mM KCl, 0.1% BSA, pH 7.4;
The test compounds were dissolved in reaction buffer at different concentrations. 4 μl of coagulation factor XIa and 4 μl of the test compound were added to a 384 well plate, incubated at room temperature for 10 minutes after mixed thoroughly, and then 4 μl of substrate was added to initiate the reaction. For reading fluorescence signal value, enzyme kinetic mode was used. The wavelength of excitation light was selected to be 380 nm, and the wavelength of emission light was selected to be 460 nm. Read once per 30 seconds, and continuously read 20 cycles. Linear regression analysis of signal value-time was performed during the linear reaction period, and the slope was the reaction rate, and the enzyme activity inhibition rate was calculated according to the following formula. The half inhibitory concentration IC50 values of the compound were fitted using GraphPad Prism 5 software, and results are shown in Table 1. Inhibition rate %=(V0−Vi)/(V0−Vblank)×100.
In the formula: V0 is the reaction rate of the control well (using the same volume of reaction buffer without adding test compound), Vi is the reaction rate of test compound, Vblank is a blank well (using the same volume of reaction buffer without adding either enzyme or test compound).

Sequence of human coagulation factor XIa (P03951 388-625): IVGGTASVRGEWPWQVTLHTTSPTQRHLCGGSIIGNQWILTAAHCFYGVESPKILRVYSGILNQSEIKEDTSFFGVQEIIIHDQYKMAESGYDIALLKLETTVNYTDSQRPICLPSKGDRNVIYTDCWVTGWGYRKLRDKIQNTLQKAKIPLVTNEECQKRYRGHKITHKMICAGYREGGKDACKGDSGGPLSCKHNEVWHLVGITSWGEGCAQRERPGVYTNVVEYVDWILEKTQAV
Sequence of human coagulation factor XIa (P03951 19-387): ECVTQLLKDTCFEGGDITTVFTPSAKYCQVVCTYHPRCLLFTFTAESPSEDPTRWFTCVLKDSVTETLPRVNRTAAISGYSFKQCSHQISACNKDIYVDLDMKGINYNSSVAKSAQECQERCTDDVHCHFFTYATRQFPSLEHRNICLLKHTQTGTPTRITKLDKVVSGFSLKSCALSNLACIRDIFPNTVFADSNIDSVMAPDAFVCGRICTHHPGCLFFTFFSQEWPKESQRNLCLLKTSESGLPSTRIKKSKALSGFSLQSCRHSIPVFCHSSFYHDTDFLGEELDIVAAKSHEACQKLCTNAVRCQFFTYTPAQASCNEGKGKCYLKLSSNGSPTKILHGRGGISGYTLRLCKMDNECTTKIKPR

Structure (SMILES): CN1CCN(c2cccc3c2CCN(C(=O)/C=C/c2c(-n4cnnn4)ccc(Cl)c2F)[C@@H]3C(=O)Nc2ccc(C(=O)O)cc2)C(=O)C1 [BMS-962212, reference compound]
AUC(0-inf) [1]: 4090 ± 654 ng·h/mL
AUC(0-t) [1]: 4090 ± 654 ng·h/mL
Cmax [1]: 11100 ± 1850 ng/mL
clearance [1]: 20.7 ± 2.7 mL/min/kg
half-life [1]: 11.4 ± 1.8 min
NOAEL at 14 days [2]: < 60 mg/kg
Repeated dose toxicity study in SD rats: females died (10th and 12th day of the administration) ([3]; daily): female animals. Two
Repeated dose toxicity study in SD rats: body weight finding ([3]; daily for 14 days, female animals): Significant weight loss
AUC(0-inf) [4]: 484 ± 38 ng·h/mL
AUC(0-t) [4]: 476 ± 35 ng·h/mL
Cmax [4]: 1470 ± 145 ng/mL
Vd [4]: 1.28 ± 0.28 L/kg
clearance [4]: 34.6 ± 2.8 mL/min/kg
half-life [4]: 25.8 ± 6.6 min
AUC(0-inf) [5]: 846 ± 80 ng·h/mL
AUC(0-t) [5]: 846 ± 80 ng·h/mL
Cmax [5]: 1480 ± 40 ng/mL
Vd [5]: 0.71 ± 0.04 L/kg
clearance [5]: 9.91 ± 0.94 mL/min/kg
half-life [5]: 49.8 ± 3 min
MTD at 7 days [6]: 70 mg/kg
Single dose toxicity study in SD rats: observation ([7]; 50 mg/kg): No abnormality was
Single dose toxicity study in SD rats: observation ([7]; 70 mg/kg): obviously hypoactive
Single dose toxicity study in SD rats: observation ([7]; 75 mg/kg): high mortality
Single dose toxicity study in SD rats: observation ([7]; 75 mg/kg, listed as Reference compound): Death of the animals

IC50 [8]: 0.33 ± 0.06 nM
Structure (SMILES): CC(C)[C@H](N)C(=O)N1CC=C(c2cccc3c2CCN(C(=O)[C@H]2CC(c4cccc(Cl)c4F)=NO2)[C@@H]3C(=O)Nc2ccc(C(=O)O)cc2)CC1 [Example 1, 4-((S)-5-(1-((S)-2-amino-3-methylbutanoyl)-1,2,3,6-tetrahydropyridin-4-yl)-2-((R)-3-(3-chloro-2-fluorophenyl)-4,5-dihydroisoxazole-5-carbonyl)-1,2,3,4-tetrahydroisoquinoline-1-carboxamido)benzoic acid]

IC50 [8]: 0.21 ± 0.02 nM
Structure (SMILES): N[C@@H](CCC(=O)N1CC=C(c2cccc3c2CCN(C(=O)[C@H]2CC(c4cccc(Cl)c4F)=NO2)[C@@H]3C(=O)Nc2ccc(C(=O)O)cc2)CC1)C(=O)O [Example 2, 4-((S)-5-(1-((S)-4-amino-4-carboxybutanoyl)-1,2,3,6-tetrahydropyridin-4-yl)-2-((R)-3-(3-chloro-2-fluorophenyl)-4,5-dihydroisoxazole-5-carbonyl)-1,2,3,4-tetrahydroisoquinoline-1-carboxamido)benzoic acid]

IC50 [8]: 0.29 ± 0.04 nM
Structure (SMILES): N[C@@H](CCC(=O)O)C(=O)N1CC=C(c2cccc3c2CCN(C(=O)[C@H]2CC(c4cccc(Cl)c4F)=NO2)[C@@H]3C(=O)Nc2ccc(C(=O)O)cc2)CC1 [Example 3, 4-((S)-5-(1-((S)-2-amino-4-carboxybutanoyl)-1,2,3,6-tetrahydropyridin-4-yl)-2-((R)-3-(3-chloro-2-fluorophenyl)-4,5-dihydroisoxazole-5-carbonyl)-1,2,3,4-tetrahydroisoquinoline-1-carboxamido)benzoic acid]

Structure (SMILES): C[C@H](N)C(=O)N1CC=C(c2cccc3c2CCN(C(=O)[C@H]2CC(c4cccc(Cl)c4F)=NO2)[C@@H]3C(=O)Nc2ccc(C(=O)O)cc2)CC1 [Example 4, 4-((S)-5-(1-((S)-2-aminopropanoyl)-1,2,3,6-tetrahydropyridin-4-yl)-2-((R)-3-(3-chloro-2-fluorophenyl)-4,5-dihydroisoxazole-5-carbonyl)-1,2,3,4-tetrahydroisoquinoline-1-carboxamido)benzoic acid]
IC50 [8]: 0.85 ± 0.03 nM
